# Experimental data reported in patent US10273237B2, “Imidazopyridazine compounds useful as modulators of IL-12, IL-23 and/or IFN-α responses” (BRISTOL-MYERS SQUIBB COMPANY, priority 2013, dated 2019).
# pIC50: −log10 of the molar value.
# Tests used:
# [1] = test system: IL-23-stimulated Kit225 T cells with STAT-dependent luciferase reporter; test: Kit225 T cell assay, STAT-dependent luciferase reporter, IL-23 stimulated; format: cell-based, human; conditions: 20 ng/mL human recombinant IL-23, 5-6 hours, read-out: IL-23 Kit225 Reporter, LE (IC50)
# Method: (§1) Kit225 T cells with a stably-integrated STAT-dependent luciferase reporter were plated in RPMI (GIBCO) containing 10% heat-inactivated FBS (GIBCO) and 100 U/mL PenStrep (GIBCO). The cells were then stimulated with either 20 ng/mL human recombinant IL-23 or 200 U/mL human recombinant IFNα (PBL InterferonSource) for 5-6 hours. Luciferase expression was measured using the STEADY-GLO® Luciferase Assay System (PROMEGA®) according to the manufacturer's instructions.
# [2] = test system: IFNα-stimulated Kit225 T cells with STAT-dependent luciferase reporter; test: Kit225 T cell assay, STAT-dependent luciferase reporter, IFNα stimulated; format: cell-based, human; conditions: 200 U/mL human recombinant IFNα, 5-6 hours, read-out: IFNa Kit225 Reporter, LE (IC50)
# Method: as §1
SMILES,pIC50 [1],pIC50 [2]
CNc1cc(Nc2cccn(-c3ccn(C)n3)c2=O)nn2c(C(=O)N[C@@H]3C[C@@H]3F)cnc12 [Example 169],7.10,7.40
CNc1cc(Nc2cccn(-c3ncccn3)c2=O)nn2c(C(=O)NC3CCCC3)cnc12 [Example 170],6.72,6.43
CNc1cc(Nc2cccn(-c3ncc(F)cn3)c2=O)nn2c(C(=O)NC3CC3)cnc12 [Example 171],6.68,6.85
CNc1cc(Nc2cccn(-c3ncc(F)cn3)c2=O)nn2c(C(=O)NC3CCCC3)cnc12 [Example 172],6.59,6.74
CNc1cc(Nc2cccn(-c3ncc(F)cn3)c2=O)nn2c(C(=O)NC3CCC3)cnc12 [Example 173],7.30,7.30
CNc1cc(Nc2cccn(-c3ncc(F)cn3)c2=O)nn2c(C(=O)N[C@@H]3C[C@@H]3F)cnc12 [Example 174],7.30,7.40
CNc1cc(Nc2cccn(-c3ncc(C(F)(F)F)cn3)c2=O)nn2c(C(=O)NC3CC3)cnc12 [Example 175],6.51,6.96
CNc1cc(Nc2ccnn(-c3ccccc3)c2=O)nn2c(C(=O)NC3CC3)cnc12 [Example 179],6.32,6.24
CCc1ccc(-n2cccc(Nc3cc(NC)c4ncc(C(=O)N[C@@H]5C[C@@H]5F)n4n3)c2=O)nn1 [Example 181],6.54,6.46
CNc1cc(Nc2cccn(-c3ccccc3)c2=O)nn2c(C(=O)NCc3nccs3)cnc12 [Example 182],6.66,6.57
CNc1cc(Nc2cccn(-c3ccccc3)c2=O)nn2c(C(=O)NC3CCCC3O)cnc12 (stereo not shown) [Example 189],6.64,6.72
CNc1cc(Nc2cccn(-c3ccccc3)c2=O)nn2c(C(=O)N[C@@H]3C[C@@H]3F)cnc12 [Example 191],7.40,7.70
CNc1cc(Nc2cccn(-c3cccc(F)n3)c2=O)nn2c(C(=O)NCc3nccs3)cnc12 [Example 192],6.64,6.74
CNc1cc(Nc2cccn(-c3cccc(F)n3)c2=O)nn2c(C(=O)NCc3ccccn3)cnc12 [Example 193],6.85,6.48
CNc1cc(Nc2cccn(-c3nnc(C)s3)c2=O)nn2c(C(=O)N[C@@H]3C[C@@H]3F)cnc12 [Example 195],6.96,7.22
CNc1cc(Nc2ccnn(-c3cccc(C#N)c3)c2=O)nn2c(C(=O)N[C@@H]3C[C@@H]3F)cnc12 [Example 196],6.80,7.40
CNc1cc(Nc2cccn(-c3ccc(C)nn3)c2=O)nn2c(C(=O)NCC(C)C)cnc12 [Example 200],6.96,6.59
CNc1cc(Nc2cccn(-c3cnn(C)c3)c2=O)nn2c(C(=O)NC3CC3)cnc12 [Example 203],6.72,6.70
CNc1cc(Nc2cccn(-c3ccc(OC)nc3)c2=O)nn2c(C(=O)NC3CC3)cnc12 [Example 204],7.15,7.00
CNc1ccc(-n2cccc(Nc3cc(NC)c4ncc(C(=O)NC5CC5)n4n3)c2=O)cn1 [Example 206],6.31,6.42
CNc1cc(Nc2cccn(C)c2=O)nn2c(C(=O)NC3CCCC3)cnc12 [Example 208],7.10,7.22
CNc1cc(Nc2cccn(C)c2=O)nn2c(C(=O)NC(C)C)cnc12 [Example 209],6.74,6.48
CCNC(=O)c1cnc2c(NC)cc(Nc3cccn(C)c3=O)nn12 [Example 210],6.66,6.41
CNc1cc(Nc2cccn(C)c2=O)nn2c(C(=O)Nc3ccccc3)cnc12 [Example 212],6.96,5.61
CNc1cc(Nc2cccn(C(C)C)c2=O)nn2c(C(=O)NC3CC3)cnc12 [Example 213],6.64,6.38
CNc1cc(Nc2cccn(C)c2=O)nn2c(C(=O)NC3CCCCC3C)cnc12 (stereo not shown) [Example 215],6.72,6.52
CNc1cc(Nc2cccn(C(C)C)c2=O)nn2c(C(=O)NC3(C#N)CC3)cnc12 [Example 216],6.05,6.36

# Second part, the molecule after the results:
pIC50 [1],pIC50 [2],SMILES
7.05,7.00,CNc1cc(Nc2cccn(C(C)C)c2=O)nn2c(C(=O)NCC(C)(C)CO)cnc12 [Example 217]
6.72,6.89,CNc1cc(Nc2cccn(C(C)(C)C)c2=O)nn2c(C(=O)NC3CC3)cnc12 [Example 218]
6.60,7.15,CNc1cc(Nc2cccn(C(C)(C)C)c2=O)nn2c(C(=O)NC3(C#N)CC3)cnc12 [Example 219]
6.77,6.55,CNc1cc(Nc2cccn(C3CCOC3)c2=O)nn2c(C(=O)NC3CC3)cnc12 (stereo not shown) [Example 220]
6.30,6.85,CNc1cc(Nc2cccn(C3CCOC3)c2=O)nn2c(C(=O)NC3CCC3)cnc12 (stereo not shown) [Example 221]
6.54,6.89,CNc1cc(Nc2cccn(C3CCOC3)c2=O)nn2c(C(=O)NC3CCCC3)cnc12 (stereo not shown) [Example 222]
5.93,6.62,CNc1cc(Nc2cccn(-c3nc4ccccc4[nH]3)c2=O)nn2c(C(=O)NC3CC3)cnc12 [Example 223]
6.17,6.33,CNc1cc(Nc2cccn(C3CCC(N4CCOCC4)CC3)c2=O)nn2c(C(=O)NC3CC3)cnc12 (stereo not shown) [Example 224]
7.00,7.52,CNc1cc(Nc2cccn(C3CCC(N4CCOCC4)CC3)c2=O)nn2c(C(=O)NC3CCC3)cnc12 (stereo not shown) [Example 225]
6.62,7.05,CNc1cc(Nc2cccn(C3CCCCC3)c2=O)nn2c(C(=O)NC3CC3)cnc12 [Example 226]
6.21,6.43,CNc1cc(Nc2cccn(C3CCC(O)CC3)c2=O)nn2c(C(=O)NC3CC3)cnc12 (stereo not shown) [Example 227]
6.68,7.00,CNc1cc(Nc2cccn(C3CCC3)c2=O)nn2c(C(=O)NC3CC3)cnc12 [Example 228]
6.62,6.74,CNc1cc(Nc2cccn(C3CCC3)c2=O)nn2c(C(=O)NC3(C#N)CC3)cnc12 [Example 229]
6.32,6.57,CCNc1cc(Nc2cccn(C)c2=O)nn2c(C(=O)NC3CCC3)cnc12 [Example 232]
6.14,6.55,CCC(CC)NC(=O)c1cnc2c(NC)cc(Nc3cccn(-c4ccc(C)nn4)c3=O)nn12 [Example 233]
6.54,6.85,CNc1cc(Nc2cccn(-c3ccc(C)nn3)c2=O)nn2c(C(=O)NC(C)COC)cnc12 (stereo not shown) [Example 234]
6.25,6.04,CNc1cc(Nc2cccn(-c3ccc(C)nn3)c2=O)nn2c(C(=O)NC(C)CC(C)C)cnc12 (stereo not shown) [Example 235]
6.07,6.46,CNc1cc(Nc2cccn(-c3ccccn3)c2=O)nn2c(C(=O)NC3CCC(O)C3(C)C)cnc12 (stereo not shown) [Example 236]
6.36,6.40,CNc1cc(Nc2cccn(-c3ccccc3)c2=O)nn2c(C(=O)NC3CCC(O)C3(C)C)cnc12 (stereo not shown) [Example 237]
7.22,6.28,CNc1cc(Nc2cccn(-c3cncc(C)n3)c2=O)nn2c(C(=O)NCC(C)(C)CO)cnc12 [Example 238]
